{"source": "patent US6500950B1", "about": "“Benzylidenepyrazolones, their preparation and use” (BASF Aktiengesellschaft, priority 1997, dated 2002)", "assay_type_in_all_cases": "in vivo", "key": {"Polygonum persicaria": {"tested_on": "Polygonum persicaria", "assay": "Post-emergence greenhouse experiment, herbicidal activity", "conditions": "post-emergence rate 0.125 or 0.0≅kg/ha of a.s., scale 0 to 100", "source_text": "(§1) The seeds of the test plants were sown separately for each species. For the post-emergence treatment, the test plants were first grown to a plant height of 3 to 15 cm, depending on the plant habit, and only then treated with the active compounds which had been suspended or emulsified in water. The test plants for this purpose were either sown directly and grown in the same containers, or they were first grown separately as seedlings and transplanted into the test containers a few days prior to treatment. The rate of application for the post-emergence treatment was 0.125 or 0.0≅kg/ha of a.s. Depending on the species, the plants were kept at 10-25° C. or 20-35° C. The test period extended over 2 to 4 weeks. During this time, the plants were tended, and their response to the individual treatments was evaluated. Evaluation was carried out using a scale from 0 to 100. 100 means no emergence of the plants, or complete destruction of at least the aerial parts, and 0 means no damage, or normal course of growth. The plants used in the greenhouse experiments were from the following species: [table]"}, "Chenopodium album": {"tested_on": "Chenopodium album", "assay": "Post-emergence greenhouse experiment, herbicidal activity", "conditions": "post-emergence rate 0.125 or 0.0≅kg/ha of a.s., scale 0 to 100", "source_text": "as §1"}, "Zea mays": {"tested_on": "Zea mays", "assay": "Post-emergence greenhouse experiment, damage to useful plant", "conditions": "post-emergence rate 0.125 or 0.0≅kg/ha of a.s., scale 0 to 100", "source_text": "as §1"}, "Solanum nigrum": {"tested_on": "Solanum nigrum", "assay": "Post-emergence greenhouse experiment, herbicidal activity", "source_text": "as §1, with “The rate of application for the post-emergence treatment was 0.125 or 0.0≅kg/ha of a.s.” left out, “growth.” for “growth. The plants used in the greenhouse experiments were from the following species: [table]”"}, "Amaranthus retroflexus": {"tested_on": "Amaranthus retroflexus", "assay": "Post-emergence greenhouse experiment, herbicidal activity", "source_text": "as §1, with “The rate of application for the post-emergence treatment was 0.125 or 0.0≅kg/ha of a.s.” left out, “growth.” for “growth. The plants used in the greenhouse experiments were from the following species: [table]”"}, "Echinochloa crus-galli": {"tested_on": "Echinochloa crus-galli", "assay": "Post-emergence greenhouse experiment, herbicidal activity", "conditions": "for Test plants [damage in %] Echinochloa crus-galli: post-emergence", "source_text": "as §1, with “The rate of application for the post-emergence treatment was 0.125 or 0.0≅kg/ha of a.s.” left out"}, "Setaria faberii": {"tested_on": "Setaria faberii", "assay": "Post-emergence greenhouse experiment, herbicidal activity", "conditions": "for Test plants [damage in %] Setaria faberii: post-emergence", "source_text": "as §1, with “The rate of application for the post-emergence treatment was 0.125 or 0.0≅kg/ha of a.s.” left out"}, "[1]": {"conditions": "application rate 0.25 g/ha of a.s."}, "[2]": {"conditions": "application rate 0.5 g/ha of a.s."}, "[3]": {"conditions": "greenhouse, post-emergence rate 0.125 or 0.0≅kg/ha of a.s., scale 0 to 100"}}, "data": [{"smiles": "CCN1N=CC(=C(Cl)c2ccc(S(C)(=O)=O)c(C3=NOCC3)c2Cl)C1=O", "note": "[I.119, cis-4-[Chloro(2-chloro-3-(4,5-dihydroisoxazol-3-yl)-4-methylsulfonylphenyl)methylene]-2-ethyl-2,4-dihydropyrazol-3-one]", "values": [{"measurement": "damage of the plants", "setting": "Polygonum persicaria", "result": "> 98", "unit": "%"}, {"measurement": "damage of the plants", "setting": "Chenopodium album", "result": "> 98", "unit": "%"}, {"measurement": "damage of the useful plant maize", "setting": "Zea mays", "result": 0, "unit": "%"}, {"measurement": "Test plants [damage in %] Solanum nigrum", "setting": "Solanum nigrum; [1]", "result": 100, "unit": "%"}, {"measurement": "Test plants [damage in %] Solanum nigrum", "setting": "Solanum nigrum; [2]", "result": 100, "unit": "%"}, {"measurement": "Test plants [damage in %] Amaranthus retroflexus", "setting": "Amaranthus retroflexus; [1]", "result": 100, "unit": "%"}, {"measurement": "Test plants [damage in %] Amaranthus retroflexus", "setting": "Amaranthus retroflexus; [2]", "result": 100, "unit": "%"}, {"measurement": "damage of the plants", "setting": "Echinochloa crus-galli; [3]", "result": "> 98", "unit": "%"}, {"measurement": "Test plants [damage in %] Echinochloa crus-galli", "setting": "Echinochloa crus-galli; [1]", "result": 100, "unit": "%"}, {"measurement": "Test plants [damage in %] Echinochloa crus-galli", "setting": "Echinochloa crus-galli; [2]", "result": 100, "unit": "%"}, {"measurement": "damage of the plants", "setting": "Setaria faberii; [3]", "result": "> 98", "unit": "%"}, {"measurement": "Test plants [damage in %] Setaria faberii", "setting": "Setaria faberii; [1]", "result": 100, "unit": "%"}, {"measurement": "Test plants [damage in %] Setaria faberii", "setting": "Setaria faberii; [2]", "result": 100, "unit": "%"}]}]}
